Patent US20060088477A1 (priority 2004, published 2006)

What was measured:
[1] = zinc salt; cited from earlier work
viruses = settings: cited from earlier work
normal cells = settings: cited from earlier work
inflammation = test system: inflammation
Text: Another exemplary metal complex is disodium monozinc (II) citrate dihydrate, sold under the tradename MZC™ by National Research Laboratories, Ltd. of Cincinnati, Ohio.

Row | Compound | pH [1] | toxicity to viruses (viruses) | toxicity to normal cells (normal cells) | anti-inflammatory performance (inflammation)
1 | CC(=O)[O-].CC(=O)[O-].[Zn+2] [zinc acetate] | about 5 | very toxic to viruses | quite toxic to normal cells | –
2 | disodium monozinc (II) citrate dihydrate [MZC] | – | – | – | dramatic anti-inflammatory performance
